In patent US20180200257A1, “METHODS FOR THE TREATMENT OF INFLAMMATORY DISORDERS” (Galapagos NV, priority 2015, published 2018):

Test system: subjects with moderately to severely active RA who have an inadequate response to methotrexate (MTX)
Assay: Study 1 (add-on to MTX) - Alanine Aminotransferase (ALT) levels
Type: in vivo, human
Details: 24 weeks results
Description: Double-blind, placebo-controlled add on study in subjects with moderately to severely active RA who have an inadequate response to methotrexate (MTX) (oral or parenteral).
595 subjects randomized to one of 6 dose regimens of Compound 1 (dosed as [Compound 1:HCl:3H2O]) (3 dose levels administered either once or twice daily) or placebo on top of each subject's stable dose of MTX.
Compound 1 (dosed as [Compound 1:HCl:3H2O]) is dosed for twelve weeks once daily (q.d.) (50 mg, 100 mg or 200 mg) or twice daily (b.i.d.) (25 mg, 50 mg or 100 mg); or placebo.
At Week 12, the subjects on placebo who have not achieved 20% improvement in swollen joint count (SJC66) and tender joint count (TJC68) are re-randomized automatically to receive Compound 1 (dosed as a [Compound 1:HCl:3H2O]) either at 100 mg q.d. or 50 mg b.i.d. doses in a blinded fashion; subjects on 50 mg q.d. who have not achieved 20% improvement in SJC66 and TJC68 will be assigned to 100 mg q.d. and subjects on 25 mg b.i.d. that have not achieved a 20% improvement in SJC66 and TJC68 will be assigned to 50 mg b.i.d. Subjects who switch treatment at week 12 are handled as if they discontinued at week 12 for the purpose of statistical analysis, whereas subjects in the other groups will maintain their randomized treatment until Week 24.
ALT levels determination is available at Quest Diagnostics, Clinical Trials, Quest House, 125-135 Staines Road, Hounslow, Middlesex, TW3 3JB, United Kingdom under Catalogue n#84460.
ALT catalyzes the exchange of the amino group of alanine with the oxogroup of 2-ketoglutarate to form pyruvate and glutamate. In the presence of lactic dehydrogenase, pyruvate reacts with NADH to form NAD+, measured spectrophotometrically. Guidelines for the ALT value have been issued by the association for Clinical Biochemistry and Laboratory Medicine, 130-132 Tooley Street LONDON SE1 2TU, united Kingdom, wherein the ALT value should be below 34 U/l in Female and below 52 U/L in male.

[1] = continued 100 mg b.i.d., week 1
[2] = continued 100 mg b.i.d., week 2
[3] = continued 100 mg b.i.d., week 4
[4] = continued 100 mg b.i.d., week 8
[5] = continued 100 mg b.i.d., week 12
[6] = continued 100 mg b.i.d., week 16
[7] = continued 100 mg b.i.d., week 20
[8] = continued 100 mg b.i.d., week 24
[9] = from 25 mg b.i.d. to 50 mg b.i.d. at 12 weeks, week 1
[10] = from 25 mg b.i.d. to 50 mg b.i.d. at 12 weeks, week 2
[11] = from 25 mg b.i.d. to 50 mg b.i.d. at 12 weeks, week 4
[12] = from 25 mg b.i.d. to 50 mg b.i.d. at 12 weeks, week 8
[13] = from 25 mg b.i.d. to 50 mg b.i.d. at 12 weeks, week 12
[14] = from 25 mg b.i.d. to 50 mg b.i.d. at 12 weeks, week 16
[15] = from 25 mg b.i.d. to 50 mg b.i.d. at 12 weeks, week 20
[16] = from 25 mg b.i.d. to 50 mg b.i.d. at 12 weeks, week 24
[17] = from 50 mg q.d. to 100 mg q.d. at 12 weeks, week 1
[18] = from 50 mg q.d. to 100 mg q.d. at 12 weeks, week 2
[19] = from 50 mg q.d. to 100 mg q.d. at 12 weeks, week 4
[20] = from 50 mg q.d. to 100 mg q.d. at 12 weeks, week 8
[21] = from 50 mg q.d. to 100 mg q.d. at 12 weeks, week 12
[22] = from 50 mg q.d. to 100 mg q.d. at 12 weeks, week 16
[23] = from 50 mg q.d. to 100 mg q.d. at 12 weeks, week 20
[24] = from 50 mg q.d. to 100 mg q.d. at 12 weeks, week 24
[25] = placebo switched to 50 mg b.i.d. at week 12, week 16
[26] = placebo switched to 50 mg b.i.d. at week 12, week 20
[27] = placebo switched to 50 mg b.i.d. at week 12, week 24
[28] = placebo switched to 100 mg q.d. at week 12, week 16
[29] = placebo switched to 100 mg q.d. at week 12, week 20
[30] = placebo switched to 100 mg q.d. at week 12, week 24

O=C(Nc1nc2cccc(-c3ccc(CN4CCS(=O)(=O)CC4)cc3)n2n1)C1CC1 [Compound 1, cyclopropanecarboxylic acid {5-[4-(1,1-dioxo-thiomorpholin-4-ylmethyl)-phenyl]-[1,2,4]triazolo[1,5-a]pyridin-2-yl}-amide]
Study 1 - ALT Mean CFB (continued 50 mg q.d., week 12): 0.5 IU/L | Study 1 - ALT Mean percentage CFB (continued 50 mg q.d., week 12): 13.8% | Study 1 - ALT Mean CFB (continued 50 mg q.d., week 16): 1.1 IU/L | Study 1 - ALT Mean percentage CFB (continued 50 mg q.d., week 16): 18.1% | Study 1 - ALT Mean CFB (continued 50 mg q.d., week 20): 2.2 IU/L | Study 1 - ALT Mean percentage CFB (continued 50 mg q.d., week 20): 22.1% | Study 1 - ALT Mean CFB (continued 50 mg q.d., week 24): 1.7 IU/L | Study 1 - ALT Mean percentage CFB (continued 50 mg q.d., week 24): 19.4% | Study 1 - ALT Mean CFB [1]: 0.5 IU/L | Study 1 - ALT Mean percentage CFB [1]: 8.8% | Study 1 - ALT Mean CFB [2]: 0.8 IU/L | Study 1 - ALT Mean percentage CFB [2]: 10.4% | Study 1 - ALT Mean CFB [3]: 0.8 IU/L | Study 1 - ALT Mean percentage CFB [3]: 20.4% | Study 1 - ALT Mean CFB [4]: 0.6 IU/L | Study 1 - ALT Mean percentage CFB [4]: 24.5% | Study 1 - ALT Mean CFB [5]: 1.7 IU/L | Study 1 - ALT Mean percentage CFB [5]: 26.0% | Study 1 - ALT Mean CFB [6]: 3.2 IU/L | Study 1 - ALT Mean percentage CFB [6]: 32.4% | Study 1 - ALT Mean CFB [7]: 2.8 IU/L | Study 1 - ALT Mean percentage CFB [7]: 34.2% | Study 1 - ALT Mean CFB [8]: 4.0 IU/L | Study 1 - ALT Mean percentage CFB [8]: 47.8% | Study 1 - ALT Mean CFB (continued 100 mg q.d., week 1): 3.0 IU/L | Study 1 - ALT Mean percentage CFB (continued 100 mg q.d., week 1): 13.6% | Study 1 - ALT Mean CFB (continued 100 mg q.d., week 2): 0.9 IU/L | Study 1 - ALT Mean percentage CFB (continued 100 mg q.d., week 2): 8.8% | Study 1 - ALT Mean CFB (continued 100 mg q.d., week 4): 0.6 IU/L | Study 1 - ALT Mean percentage CFB (continued 100 mg q.d., week 4): 9.1% | Study 1 - ALT Mean CFB (continued 100 mg q.d., week 8): 1.7 IU/L | Study 1 - ALT Mean percentage CFB (continued 100 mg q.d., week 8): 15.1% | Study 1 - ALT Mean CFB (continued 100 mg q.d., week 12): 1.6 IU/L | Study 1 - ALT Mean percentage CFB (continued 100 mg q.d., week 12): 15.6% | Study 1 - ALT Mean CFB (continued 100 mg q.d., week 16): 0.7 IU/L | Study 1 - ALT Mean percentage CFB (continued 100 mg q.d., week 16): 9.5% | Study 1 - ALT Mean CFB (continued 100 mg q.d., week 20): 1.8 IU/L | Study 1 - ALT Mean percentage CFB (continued 100 mg q.d., week 20): 19.8% | Study 1 - ALT Mean CFB (continued 100 mg q.d., week 24): 5.1 IU/L | Study 1 - ALT Mean percentage CFB (continued 100 mg q.d., week 24): 39.5% | Study 1 - ALT Mean CFB (continued 200 mg q.d., week 1): 2.3 IU/L | Study 1 - ALT Mean percentage CFB (continued 200 mg q.d., week 1): 11.4% | Study 1 - ALT Mean CFB (continued 200 mg q.d., week 2): 1.4 IU/L | Study 1 - ALT Mean percentage CFB (continued 200 mg q.d., week 2): 15.5% | Study 1 - ALT Mean CFB (continued 200 mg q.d., week 4): 1.1 IU/L | Study 1 - ALT Mean percentage CFB (continued 200 mg q.d., week 4): 15.1% | Study 1 - ALT Mean CFB (continued 200 mg q.d., week 8): 3.9 IU/L | Study 1 - ALT Mean percentage CFB (continued 200 mg q.d., week 8): 31.1% | Study 1 - ALT Mean CFB (continued 200 mg q.d., week 12): 3.4 IU/L | Study 1 - ALT Mean percentage CFB (continued 200 mg q.d., week 12): 33.9% | Study 1 - ALT Mean CFB (continued 200 mg q.d., week 16): 4.7 IU/L | Study 1 - ALT Mean percentage CFB (continued 200 mg q.d., week 16): 43.8% | Study 1 - ALT Mean CFB (continued 200 mg q.d., week 20): 2.9 IU/L | Study 1 - ALT Mean percentage CFB (continued 200 mg q.d., week 20): 32.9% | Study 1 - ALT Mean CFB (continued 200 mg q.d., week 24): 5.4 IU/L | Study 1 - ALT Mean percentage CFB (continued 200 mg q.d., week 24): 47.5% | Study 1 - ALT Mean CFB [9]: −7.8 IU/L | Study 1 - ALT Mean percentage CFB [9]: −16.4% | Study 1 - ALT Mean CFB [10]: −7.3 IU/L | Study 1 - ALT Mean percentage CFB [10]: −12.0% | Study 1 - ALT Mean CFB [11]: −5.6 IU/L | Study 1 - ALT Mean percentage CFB [11]: 0.0% | Study 1 - ALT Mean CFB [12]: −8.3 IU/L | Study 1 - ALT Mean percentage CFB [12]: −16.4% | Study 1 - ALT Mean CFB [13]: −6.4 IU/L | Study 1 - ALT Mean percentage CFB [13]: −5.8% | Study 1 - ALT Mean CFB [14]: −7.9 IU/L | Study 1 - ALT Mean percentage CFB [14]: −9.7% | Study 1 - ALT Mean CFB [15]: −5.4 IU/L | Study 1 - ALT Mean percentage CFB [15]: 5.9% | Study 1 - ALT Mean CFB [16]: −4.8 IU/L | Study 1 - ALT Mean percentage CFB [16]: 5.7% | Study 1 - ALT Mean CFB [17]: 0.4 IU/L | Study 1 - ALT Mean percentage CFB [17]: 0.9% | Study 1 - ALT Mean CFB [18]: −1.4 IU/L | Study 1 - ALT Mean percentage CFB [18]: −6.5% | Study 1 - ALT Mean CFB [19]: −0.3 IU/L | Study 1 - ALT Mean percentage CFB [19]: 2.2% | Study 1 - ALT Mean CFB [20]: −0.2 IU/L | Study 1 - ALT Mean percentage CFB [20]: 3.6% | Study 1 - ALT Mean CFB [21]: −0.1 IU/L | Study 1 - ALT Mean percentage CFB [21]: 5.2% | Study 1 - ALT Mean CFB [22]: −2.3 IU/L | Study 1 - ALT Mean percentage CFB [22]: −9.8% | Study 1 - ALT Mean CFB [23]: −1.7 IU/L | Study 1 - ALT Mean percentage CFB [23]: −3.7% | Study 1 - ALT Mean CFB [24]: −3.0 IU/L | Study 1 - ALT Mean percentage CFB [24]: −8.7% | Study 1 - ALT Mean CFB [25]: 0.5 IU/L | Study 1 - ALT Mean percentage CFB [25]: 1.1% | Study 1 - ALT Mean CFB [26]: 0.7 IU/L | Study 1 - ALT Mean percentage CFB [26]: 0.7% | Study 1 - ALT Mean CFB [27]: 1.0 IU/L | Study 1 - ALT Mean percentage CFB [27]: 6.8% | Study 1 - ALT Mean CFB [28]: −1.3 IU/L | Study 1 - ALT Mean percentage CFB [28]: 0.4% | Study 1 - ALT Mean CFB [29]: 0.5 IU/L | Study 1 - ALT Mean percentage CFB [29]: 5.9% | Study 1 - ALT Mean CFB [30]: −0.1 IU/L | Study 1 - ALT Mean percentage CFB [30]: 10.0%
